Assay [1] has as its system mouse. Description: Four Plates Test. Particulars: 32 mg/kg p.o. −1 h (vehicle at −24 h and −5 h). Type of assay: in vivo. An excerpt: The method, which detects anxiolytic activity, follows that described by Aron et al (1971, Neuropharmacology, 10:459-469). Anxiolytics (benzodiazepines) increase the number of punished crossings. Animals were placed individually in a white plastic enclosure containing a floor consisting of 4 metal plates connected to an electric shock generator (Apelex: type 011346). Each mouse was left to explore freely for 15 seconds. Then, every time it crossed from one plate to another, it received a weak electric shock (2.5 mA, 1.5 s). The number of punished crossings was counted during a 1 minute test. 15 mice were studied per group. The test was performed blind.
Carnosol was evaluated at 3 doses (200, 400, 600 mg/kg), administered p.o. 24 h, 5 h and 1 h before the test, and compared with a vehicle control (corn oil) group.
Clobazam (32 mg/kg p.o.), administered 1 h before the test, was used as reference substance. Mice in this group received additional administrations of vehicle at 24 h and 5 h before the test in order to maintain experimental blinding.

For assay [2], the system named is mouse. Put plainly: Marble burying test. Type of assay: in vivo. The conditions noted are these: 32 mg/kg i.p., −30 min. As for the experimental part:
The method applied here follows that described by Broekkamp et al. (1986). Mice (n=15 per treatment group) were individually placed in transparent plastic cages (33×21×18 cm) with 5 cm of sawdust on the floor and 25 marbles (diameter 1 cm) grouped in the centre of the cage. A second, up-turned, cage served as a lid. The number of marbles covered by sawdust (by at least two-thirds) was counted at the end of the 30-min test period. Tests were performed by investigators blind to the drug treatment protocol.
Prior to testing, all test cages and marbles were “impregnated” by leaving 10 naive mice in each cage for 15 minutes.
Carnosol (3, 10 and 30 mg/kg) and rosmanol (10, 30 and 100 mg/kg) were administered i.p. 30 min before the test, and compared with a vehicle control group. Fluoxetine (32 mg/kg), administered under the same experimental conditions, was used as a reference substance.

Assay [3] deals with T1, human glycine transporter 1b (GlyT1) (Homo sapiens, UniProt P48067).
T1 construct: expressed in transfected cells; host or cells: CHO
T1 sequence (P48067 1-652 isoform P48067-3): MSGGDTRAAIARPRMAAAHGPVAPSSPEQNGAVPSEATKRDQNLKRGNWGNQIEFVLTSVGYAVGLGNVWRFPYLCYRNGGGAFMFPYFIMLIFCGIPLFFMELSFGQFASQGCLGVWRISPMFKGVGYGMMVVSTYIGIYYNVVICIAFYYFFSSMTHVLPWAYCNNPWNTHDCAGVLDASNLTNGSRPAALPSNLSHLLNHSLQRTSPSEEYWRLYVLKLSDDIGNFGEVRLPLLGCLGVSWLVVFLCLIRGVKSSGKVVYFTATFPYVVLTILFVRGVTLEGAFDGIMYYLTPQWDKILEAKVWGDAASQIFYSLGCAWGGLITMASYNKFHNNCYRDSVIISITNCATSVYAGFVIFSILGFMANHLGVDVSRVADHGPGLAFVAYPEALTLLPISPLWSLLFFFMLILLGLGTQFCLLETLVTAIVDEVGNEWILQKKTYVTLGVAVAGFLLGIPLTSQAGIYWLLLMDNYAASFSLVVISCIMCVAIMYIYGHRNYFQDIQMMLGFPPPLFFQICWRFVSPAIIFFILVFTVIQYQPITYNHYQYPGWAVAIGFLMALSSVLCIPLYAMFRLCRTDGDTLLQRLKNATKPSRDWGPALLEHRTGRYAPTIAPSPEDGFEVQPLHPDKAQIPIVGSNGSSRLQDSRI
Put plainly: Glycine uptake inhibition in CHO cells expressing GlyT1. Type of assay: cell-based. The conditions noted are these: 60 nM [3H]-glycine, read-out: IC50 for tritiated glycine uptake. As for the experimental part: CHO cells stably expressing the human glycine transporter 1b cDNA (GlyT1) were routinely grown in Dulbecco's Modified Eagle's Medium (Invitrogen, Carlsbad, USA) containing 10% dialysed foetal calf serum, penicillin, streptomycin, proline and the antibiotic G418. Cells were harvested by trypsinisation one day prior to the assay and were seeded in the above mentioned medium. Immediately prior to the assay, the medium was replaced by uptake buffer containing 150 mM NaCl, 1 mM CaCl2, 2.5 mM KCl, 2.5 mM MgCl2, 10 mM Glucose and 10 mM N-2-hydroxyethylpiperazine-N′-2-ethanesulfonic acid (HEPES buffer).
Glycine uptake into the cells was determined by addition of 60 nM radiolabelled [^3H]-glycine (Amersham Biosciences GE Healthcare, Slough, UK) and incubation for 30 minutes at room temperature. Following removal of unincorporated label by gentle washing three times with the above buffer, incorporated glycine was quantified by liquid scintillation counting.

The test system of assay [4] is mouse. Put plainly: Porsolt's Forced Swim Test (FST). Type of assay: in vivo. Here is the method: The Forced Swim Test (FST) was first reported in 1977 for screening of antidepressant-like compounds in rats (Porsolt et al 1977 Nature, 266:730-732) and, later, modified for testing mice (Porsolt et al 1977 Arch. Int. Pharmacodynamie, 229:327-336).
In two separate experiments, mice were tested following either i.p. or p.o. administration of carnosol. Mice were individually placed in a cylinder containing water (22° C.) from which they could not escape. The mice were placed in the water for 6 min and the duration of immobility during the last 4 min was measured. Ten to fifteen mice were studied per group. Carnosol was evaluated at 3, 10, 30 mg/kg body weight (i.p. 30 min before the test) or 200, 400, 600 mg/kg body weight (p.o., 24, 5 and 1 h before the test), and compared with vehicle control groups. Imipramine (32 mg/kg i.p., or p.o., respectively), administered under the same experimental conditions, was used as reference substance. Immobility and swimming time were assessed.

For `CN1C(=O)CC(=O)N(c2ccccc2)c2cc(Cl)ccc21` [Clobazam, reference compound], in the assay with mouse [1], the “Number of punished crossings, % change from control” value is “+118%” and the “Number of punished crossings, mean” value amounted to 6.1.
With `CNCCC(Oc1ccc(C(F)(F)F)cc1)c1ccccc1` (stereo not drawn) [Fluoxetine, fluoxetine, reference compound], the “Number of marbles buried (% change from control)” value in the assay with mouse [2] is on record as −92%.
Regarding `CN(CC[C@@H](Oc1ccc(C(F)(F)F)cc1)c1ccccc1)CC(=O)O` [ORG24598, reference compound], the IC50 in assay [3] stood at 20 nM.
As to `CN(C)CCCN1c2ccccc2CCc2ccccc21` [imipramine, reference compound], the “Duration of immobility (% change from control)” value with mouse [4] (32 mg/kg i.p., −30 min) was −80%; in the assay with mouse [4] (32 mg/kg p.o., −24, −5, −1 h), −48%.

The IC50 is the concentration that gives 50% inhibition.

The record behind these values is patent publication US8227508B2, “Dietary and pharmaceutical compositions containing carnosol and/or rosmanol and their uses” (DSM IP Assets B.V., priority 2006, dated 2012).
